Paper PMC8512870, “Anti-Fungal Hevein-like Peptides Biosynthesized from Quinoa Cleavable Hololectins” (Molecules, 2021)
Where a SMILES comes first, the peptide text is derived from it. Bridges are numbered along the chain shown (N, C = ends).

What was measured:
[1] = system: pepsin; assay: Proteolytic stability, pepsin; format: in vitro ADME; details: recommended buffer, RP-HPLC peak area and MALDI-TOF MS, n = 3
Method: (§1) Assessments of thermal, acidic and proteolytic stability were performed as previously described. Purified chenotide cQ2 was incubated at the stated conditions and recommended buffer solution. At each time interval, samples were aliquoted in triplicate and RP-UPLC was performed. The area under the peak was used to determine the amount of chenotide present before and after treatment.

[2] = Stability in human serum; format: in vitro ADME; details: RP-HPLC peak area and MALDI-TOF MS, n = 3
Method: as §1

[3] = system: aminopeptidase I; assay: Proteolytic stability, aminopeptidase I; format: in vitro ADME; details: recommended buffer, RP-HPLC peak area and MALDI-TOF MS, n = 3
Method: as §1

[4] = system: Alternaria alternata (CICC 2465); assay: Microbroth dilution anti-fungal assay; format: cell-based; details: spores 1 × 10^5 cells/mL in half-strength potato dextrose broth, 25 °C, 24 h, crystal violet, absorbance 570 nm, listed as chenotide cQ2, read-out: IC50 against Alternaria alternata
Method: (§2) The half-maximal inhibitory concentration levels (IC50) of peptides were determined by a microbroth dilution assay. Fungal spores were harvested from a 4-day-old actively growing fungal plate and suspended in half-strength potato dextrose broth. Spore suspensions (1 × 10^5 cells/mL) were mixed with peptides at varying concentrations in 96-well microplates and incubated at 25 °C for 24 h. The cells were then fixed with 100% methanol for 15 min and stained for 45 min with crystal violet dye. Excess dye was removed with MilliQ water. Elution was performed using 1:1 (v/v) ethanol/0.1 N HCl. The absorbance was measured at 570 nm.

[5] = system: Fusarium oxysporum (CICC 2532); assay: Microbroth dilution anti-fungal assay; format: cell-based; details: spores 1 × 10^5 cells/mL in half-strength potato dextrose broth, 25 °C, 24 h, crystal violet, absorbance 570 nm, listed as chenotide cQ2, read-out: IC50 against Fusarium oxysporum
Method: as §2

[6] = system: Rhizoctonia solani (CICC 40259); assay: Microbroth dilution anti-fungal assay; format: cell-based; details: spores 1 × 10^5 cells/mL in half-strength potato dextrose broth, 25 °C, 24 h, crystal violet, absorbance 570 nm, listed as chenotide cQ2, read-out: IC50 against Rhizoctonia solani
Method: as §2

[7] = system: Curvularia lunata (CICC 40301); assay: Microbroth dilution anti-fungal assay; format: cell-based; details: spores 1 × 10^5 cells/mL in half-strength potato dextrose broth, 25 °C, 24 h, crystal violet, absorbance 570 nm, listed as chenotide cQ2, read-out: IC50 against Curvularia lunata
Method: as §2

[8] = Stability in horse serum; format: in vitro ADME; details: RP-HPLC peak area and MALDI-TOF MS, n = 3
Method: as §1

With `CC(C)C[C@@H]1NC(=O)CNC(=O)CNC(=O)[C@@H]2CCCN2C(=O)[C@@H]2CSSC[C@@H]3NC(=O)[C@H](Cc4ccccc4)NC(=O)CNC(=O)[C@H](Cc4ccccc4)NC(=O)[C@H](CCCCN)NC(=O)[C@H](CO)NC(=O)[C@H](CSSC[C@H](NC(=O)[C@H](CCC(=O)O)NC(=O)CNC(=O)[C@H](C)N)C(=O)N[C@@H](C(C)C)C(=O)N[C@@H](CCCNC(=N)N)C(=O)NCC(=O)N[C@@H](CCCNC(=N)N)C(=O)N2)NC(=O)[C@H](CSSC[C@@H](C(=O)NCC(=O)NCC(=O)O)NC(=O)[C@H](Cc2ccc(O)cc2)NC(=O)[C@H](C)NC(=O)[C@@H]2CCCN2C(=O)CNC(=O)[C@H](CO)NC(=O)CNC3=O)NC1=O` [cQ2] (H-AGECVRGRCPGGLCCSKFGFCGSGPAYCGG-OH; disulfide 4-15, 9-21, 14-28) the “Peptide retained after pepsin treatment” value [1] was > 80%, the “Peptide retained after human serum treatment” value [2] was > 80% and the “Peptide retained after aminopeptidase I treatment” value [3] was > 80%. For the same compound, the IC50 [4] was ~9 µM, the IC50 [5] was ~0.3 µM and the IC50 [6] was ~3 µM. The IC50 [7] was ~5 µM and the “Peptide retained after horse serum treatment” value [8] was > 80%.
